Assay [1] has as its target T1, S1R (Rattus norvegicus, UniProt Q9R0C9). In words: S1R radioligand binding assay with [3H](+)-pentazocine. The conditions noted are these: for Ki: read-out: Ki ± SD S1R, rat liver homogenates, [3H](+)pentazocine, mean ± SD of at least two experiments in duplicate; for KiS2R/KiS1R ratio: selectivity over S2R; for binding to S1R (in words): radioligand binding.
For the next assay, the target named is T2, S2R (Rattus norvegicus, UniProt Q5U3Y7).
T2 sequence (Q5U3Y7 1-176): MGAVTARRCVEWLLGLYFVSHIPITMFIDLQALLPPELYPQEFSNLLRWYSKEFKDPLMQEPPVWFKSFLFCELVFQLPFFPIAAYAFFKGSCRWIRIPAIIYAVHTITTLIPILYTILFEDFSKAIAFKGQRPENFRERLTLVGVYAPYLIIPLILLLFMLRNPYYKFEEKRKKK
Nature of the assay: S2R radioligand binding assay with [3H]DTG. The conditions noted are these: for Ki: read-out: Ki ± SD S2R, rat liver homogenates, [3H]DTG, (+)-pentazocine as S1R masking agent, mean ± SD of at least two experiments in duplicate; for binding to S2R (in words): radioligand binding.

Assay [2] concerns the target S1R. The conditions noted are these: co-crystallized ligand; no reference given; read-out: KiS1R; cited from earlier work.
Assay [3] concerns the target T1, S1R. In words: S1R functional assay (phenytoin method, [3H](+)-pentazocine displacement). The format is binding. On the set-up: liver homogenates from male Sprague Dawley rats; from tissue; host or cells: rat liver homogenate (male Sprague Dawley). As to conditions: rat liver; for ratio of Ki without phenytoin/with phenytoin: agonist if ratio >1, antagonist if ≤1. The method, then: Phenytoin is an allosteric modulator for the S1R, and it differentially modulates the affinity of S1R ligands on the basis of their agonist or antagonist profile.[22,23]
The experiments were performed one time in the presence of phenytoin and one time without phenytoin. […] The incubation of samples lasts 120 min at 37 °C. Unlabeled (+)-pentazocine (10 μM) was used to measure non-specific binding.
GraphPad Prism® 7.0 (GraphPad Software, San Diego, CA, USA) program was used to calculate the Ki values that are given as mean value ± SD from at least two independent experiments performed in duplicate.

“Also recorded” adds a separate entry of the source.

T1 sequence (Q9R0C9 whole entry): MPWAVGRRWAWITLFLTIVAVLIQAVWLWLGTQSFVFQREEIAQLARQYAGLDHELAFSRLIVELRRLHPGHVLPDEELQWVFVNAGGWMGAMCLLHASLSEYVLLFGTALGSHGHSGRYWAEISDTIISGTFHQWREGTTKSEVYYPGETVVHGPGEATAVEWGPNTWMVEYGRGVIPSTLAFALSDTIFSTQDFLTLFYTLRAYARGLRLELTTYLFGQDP

For `O=C(Cc1ccccc1Br)N1CCN(Cc2ccc(F)cc2)CC1` [Compound 10], the figures for the Ki at S1R [1] and on S2R were 366 ± 80 nM and above 10000 nM, respectively.
For `O=C(NC1CCN(Cc2ccccc2)CC1)c1ccc(I)cc1` [4-IBP], the Ki at S1R [2] is 1.7 nM.
For `O=C(CCN1CCC(Cc2ccc(F)cc2)CC1)N1CCN(c2ccc(O)cc2)CC1` [Compound 5], the Ki at S1R [1] is 434 ± 47 nM; at S2R, 610 ± 146 nM.
As for `O=C(c1ccc([N+](=O)[O-])s1)N1CCN(Cc2ccc(F)cc2)CC1` [Compound 9], the Ki was 309 ± 55 nM at S1R [1] and above 10000 nM on S2R.
On to `O=C(CN1CCC(Cc2ccccc2)CC1)N1CCN(c2ccc(O)cc2)CC1` [Compound 2], for which the results for the Ki on S1R [1] and on S2R were 24 ± 5 nM and 1200 ± 226 nM, respectively. In addition, the KiS2R/KiS1R ratio at S1R [1] worked out at 50.
With `O=C(c1ccc(-c2ccccc2)cc1)N1CCN(c2ccc(O)cc2)CC1` [Compound 13], at S1R [1], the “binding to S1R (in words)” value is listed as “failed to bind; also recorded: did not bind” and the Ki was above 10000 nM. Also, on S2R, the “binding to S2R (in words)” value is on record as “failed to bind; also recorded: did not bind” and the Ki is above 10000 nM.
With `O=C(c1cc2ccccc2o1)N1CCN(Cc2ccc(F)cc2)CC1` [Compound 7], the figures for the Ki at S1R [1] and on S2R were 132 ± 27 nM and above 10000 nM, respectively.
In the same order, the values of `O=C(c1cc2ccccc2s1)N1CCN(Cc2ccc(F)cc2)CC1` [Compound 6] are 82 ± 18 nM and above 10000 nM.
Regarding `C=CCN1CC[C@]2(C)c3cc(O)ccc3C[C@H]1[C@H]2C` [SKF-10 047, reference compound], at S1R [3], the “ratio of Ki without phenytoin/with phenytoin” value is 3.2.
Consider `O=C(C(c1ccccc1)c1ccccc1)N1CCN(Cc2ccc(F)cc2)CC1` [Compound 11], for which the Ki on S1R [1] is 390 ± 77 nM; at S2R, above 10000 nM.
Turning to `Cc1ccc(C(=O)N2CCN(Cc3ccc(F)cc3)CC2)o1` [Compound 8], the results for the Ki at S1R [1] and at S2R were 214 ± 29 nM and above 10000 nM, respectively.
In the case of `O=C(CCN1CCC(Cc2ccccc2)CC1)N1CCN(c2ccc(O)cc2)CC1` [Compound 4], the Ki worked out at 328 ± 58 nM at S1R [1] and 1000 ± 203 nM on S2R.
`O=C(CN1CCC(Cc2ccccc2)CC1)N1CCN(c2ccccc2)CC1` [Compound 1, 2-[4-(benzyl)-1-piperidin-1-yl]-1-4-(4-phenylpiperazin-1-yl)ethanone]: at S1R [1], the Ki was found to be 3.2 ± 0.7 nM and the KiS2R/KiS1R ratio is recorded as 33. Also, the S1R functional profile entry on S1R [3] (phenytoin assay) is “S1R agonist”. Also, the “ratio of Ki without phenytoin/with phenytoin” value at S1R [3] was found to be 1.8. Further, on S2R, the Ki was 104 ± 15 nM.
`O=C(CCN1CCC(Cc2ccccc2)CC1)N1CCN(c2ccccc2)CC1` [Compound 3]: on S1R [1], the Ki worked out at 8.9 ± 1.3 nM and the KiS2R/KiS1R ratio is listed as 26. Moreover, the Ki on S2R amounted to 234 ± 43 nM.
Take `O=C(c1ccccc1)N1CCN(c2ccc(O)cc2)CC1` [Compound 12]: at S1R [1], the “binding to S1R (in words)” value was “failed to bind; also recorded: did not bind” and the Ki was above 10000 nM. Further, on S2R, the “binding to S2R (in words)” value was “failed to bind; also recorded: did not bind” and the Ki is above 10000 nM.

Values taken from publication PMC10507793, “Discovery and computational studies of piperidine/piperazine-based compounds endowed with sigma receptor affinity” (RSC Medicinal Chemistry, 2023).
